Laboratory results as given in patent publication US4007165A (priority 1974, dated 1977).

Experiments:
[1] = Curing of unsaturated polyester-styrene resin
Procedure: An unsaturated polyester resin was made by reacting maleic anhydride (1.0 mole), phthalic anhydride (1.0 mole), and propylene glycol (2.2 moles) until an acid number of 45-50 was obtained. To this was added hydroquinone at a 0.013% concentration. Seven parts of this unsaturated polyester was diluted with 3 parts of monomeric styrene to obtain a homogeneous blend having a viscosity of 13.08 poise and a specific gravity of 1.14.
To 20 grams of this blend was added 0.128 gram of alpha-(tert.-butylazo)isobutyronitrile and the resultant composition placed in a constant temperature bath at 212° F. (100° C.). […] At 180° F. (82.2° C.), a peak exotherm of 381° F. (193.9° C.) was obtained in 13.3 minutes. The resultant cured materials were very hard.
The procedure of Example III was used at 212° F. (100° C.) and 240° F. (115.6° C.) where peak exotherms of 414° F. (212.2° C.) and 440° F. (226.7° C.) were obtained after 10.0 and 5.3 minutes respectively using 0.2 gram of the 1-tert.-butylazo-1-cyanocyclohexane. The resultant cured resins were very hard.
The curing procedure and resin are described in Example III.

[2] = Oxidation of iodide ion to free iodine
[3] = for gas/nitrogen evolution or decomposition: room temperature or on melting; for temperature at which it begins to evolve nitrogen: onset
[4] = Polymerization of styrene in sealed tube at 70° C; details: for dry polymer weight: 10.0 grams styrene
Procedure: An 18 × 150 mm pyrex test tube was filled with 10.0 grams of distilled styrene monomer and 0.121 grams (8.4 × 10^^-4 moles) of 2-t-butylazo-2-hydroxypropane. The test tube was flushed out with nitrogen and placed in a constant temperature bath thermostatted at 70° C. After 4.0 hours at 70° C, the tube was removed and quickly chilled to -20° F to prevent post polymerization. The sealed tube was then broken and the polymer dissolved in 1000 ml of methanol to precipitate the polystyrene. The polymer was separated by filtration and dried in an oven at 50°-55° C. The dry polymer weighed 3.4 grams (34% conversion). The rate of conversion of monomer to polymer was 8.5% per hour.
An 18 × 150 mm pyrex test tube was filled with 10.0 grams of distilled styrene monomer and 0.134 grams (8.5 × 10^^-4 moles) of 2-t-butylazo-2-hydroxybutane from Example V. The test tube was flushed out with nitrogen and placed in a constant temperature thermostatted bath at 70° C. After 6.0 hours at 70° C, the tube was removed and quickly chilled to -20° F to prevent post polymerization. The sealed tube was then broken and the polymer dissolved in 1000 ml of methanol to precipitate the polystyrene. The polymer was separated by filtration and dried in an oven at 50°-55° C. The dry polymer weighed 4.8 grams (48% conversion). The rate of conversion of monomer to polymer was 8.0% per hour.

[5] = Thermal decomposition half-life; format: physicochemical; details: gas evolution technique, trichlorobenzene solvent
Procedure: It produces 179 cc. of gas per gram at 110° C. The following half-life data have been determined:
The following half-life data have been determined by gas evolution technique using trichlorobenzene as the solvent: […]

[6] = 240° F. (115.6° C.), 1.0 weight per cent
[7] = 265° F. (129.4° C.), 1.0 weight per cent
[8] = 180° F. (82.2° C.), 1.0 weight per cent
[9] = 180° F. (82.2° C.), loading not given
[10] = 212° F. (100° C.), loading not given
[11] = 212° F. (100° C.), 1.0 weight per cent

In the case of `CC(C)CC(C)(N=NC(C)(C)C)N=[N+]=[N-]` (stereo not shown) [XLII, 2-t-butylazo-2-azido-4-methylpentane], the “Barcol Hardness” value ([1]; bath 100° C.) is reported as 40, the “Minutes to Peak Exotherm” value ([1]; bath 100° C.) is reported as 5.3 min and the “peak exotherm” value ([1]; bath 100° C.) is reported as 418 ° F.

For `CN(C)C(=O)N=NC(C)(C)C` [XV, tert.-butylazo-N,N-dimethylformamide], the “oxidizing of iodide ion” value [2] was “oxidized iodide ion to free iodine”.

In the case of `C=C(C)N=NC(C)(C)C` [XXII, 2(-tert.-butylazo)propene], the “gas/nitrogen evolution or decomposition” value [3] is reported as “evolves nitrogen at room temperature”.

With `CCC(C)(O)N=NC(C)(C)C` (stereo not shown) [2-t-butylazo-2-hydroxybutane] the “rate of conversion of monomer to polymer” value ([4]; 6.0 hours) was 8.0 % per hour, the conversion ([4]; 6.0 hours, 8.5 × 10^^-4 moles in 10.0 grams styrene) was 48% and the dry polymer weight ([4]; 6.0 hours) was 4.8 grams.

With `CC(C)CC(C)(N=NC(C)(C)C)OC#N` (stereo not shown) [LIII, 2-t-Butylazo-2-cyanato-4-methylpentane] the “Barcol Hardness” value ([1]; bath 115° C.) was 45, the “Minutes to Peak Exotherm” value ([1]; bath 115° C.) was 3.8 min and the “peak exotherm” value ([1]; bath 115° C.) was 412 ° F.

For `COC(C)(CC(C)C)N=NC(C)(C)C` (stereo not shown) [XXXVI, 2-t-butylazo-2-methoxy-4-methylpentane], the “Barcol Hardness” value ([1]; bath 115° C.) was 40, the “Minutes to Peak Exotherm” value ([1]; bath 115° C.) was 7.2 min and the “peak exotherm” value ([1]; bath 115° C.) was 400 ° F.

In the case of `COC(=O)CNC(=O)N=NC(C)(C)C` [XVI, tert.-butylazo-N-carbmethoxymethylformamide], the “hardness of cured resin” value [1] is reported as “very hard”, the peak exotherm [1, 6] is reported as 356 ° F and the “time to peak exotherm” value [1, 6] is reported as 15.8 min. The peak exotherm [1, 7] was 484 ° F, the “time to peak exotherm” value [1, 7] was 5.1 min and the “oxidizing of iodide ion” value [2] was “oxidized iodide ion to free iodine”. For the same molecule, the “temperature at which it begins to evolve nitrogen” value (from here on “temperature at which it begins”) [3] was 140 °C.

For `COC(C)(N=NC(C)(C)C)c1ccccc1` (stereo not shown) [XXXIX, 1-t-butylazo-1-methoxy-1-phenylethane], the “Barcol Hardness” value ([1]; bath 82° C.) was 40, the “Minutes to Peak Exotherm” value ([1]; bath 82° C.) was 6.6 min and the “peak exotherm” value ([1]; bath 82° C.) was 371 ° F.

For `CC(C)(C)N=NC(=O)c1ccccc1` [Example XX, Benzoyl tert.-butyldiimide], the “hardness of cured resin” value [1] was “hard”, the peak exotherm [1, 8] was 233 ° F and the “time to peak exotherm” value [1, 8] was 10.0 min. The “temperature at which it evolves nitrogen” value [3] was 25 °C.

In the case of `CC(C)(C)N=Nc1nc(N=NC(C)(C)C)nc(N=NC(C)(C)C)n1` [XXI, 2,4,6-Tri-(tert.-butylazo)-1,3,5-triazine], the “oxidizing of iodide ion” value [2] is reported as “oxidized iodide ion to free iodine” and the “temperature at which it begins” value [3] is reported as 102 °C.

With `CC(C)(C)N=NC(C)(C#N)C1CC1` (stereo not drawn) [Example XII, Alpha-tert-butylazo-alpha-cyclopropylpropionitrile] the “hardness of cured resin” value [1] was “very hard”, the peak exotherm [1, 9] was 403 ° F and the “time to peak exotherm” value [1, 9] was 3.3 min. For the same molecule, the peak exotherm [1, 10] was 420 ° F, the “time to peak exotherm” value [1, 10] was 2.1 min and the “temperature at which it begins” value [3] was 75 °C.

With `CC(C)(C)N=NC1(C(N)=O)CCCCC1` [XXIV, 1-tert. butylazo-1-carbamylcyclohexane] the peak exotherm [1, 6] was 444 ° F, the “time to peak exotherm” value [1, 6] was 6.8 min and the “temperature at which it evolves nitrogen” value [3] was “above 120 °C”.

With `CC1CC(C)(C)CC(C#N)(N=NC(C)(C)C)C1` (stereo not shown) [Example VIII, 1-tert.-butylazo-1-cyano-3,3,5-trimethylcyclohexane] the “hardness of cured resin” value [1] was “very hard”, the peak exotherm [1, 8] was 384 ° F and the “time to peak exotherm” value [1, 8] was 9.4 min. The “temperature at which it begins” value [3] was 100 °C.

In the case of `CC(C)(C)N=NC(C)(C)O` [LXXII, 2-t-Butylazo-2-hydroxypropane], the “rate of conversion of monomer to polymer” value ([4]; 4.0 hours) is reported as 8.5 % per hour, the conversion ([4]; 4.0 hours, 8.4 × 10^^-4 moles in 10.0 grams styrene) is reported as 34% and the dry polymer weight ([4]; 4.0 hours) is reported as 3.4 grams.

In the case of `CC(C)CC(C)(N=NC(C)(C)C)NNc1ccccc1` (stereo not shown) [LXVIII, 2-t-Butylazo-2-phenylhydrazo-4-methylpentane], the “gas/nitrogen evolution or decomposition” value [3] is reported as “decomposes rapidly at room temperature”.

For `CC(C)(C)N=NC(C)(C)C(N)=O` [Example XXV, 2-t-butylazo-2-carbamylpropane], the peak exotherm [1, 6] was 442 ° F, the “time to peak exotherm” value [1, 6] was 5.7 min and the “temperature at which it evolves nitrogen” value [3] was “above 120 °C”.

In the case of `CC(C)CC(C)(N=NC(C)(C)C)OOC(C)(C)CCC(C)(C)OOC(C)(CC(C)C)N=NC(C)(C)C` (stereo not shown) [LXV, 2,2,5,8,8,11,11,14,17,17-decamethyl-5,14-diisobutyl-Δ^3,15-3,4,15,16-tetraaza-6,7,12,13-tetraoxaoctadecadiene], the “temperature at which it evolves nitrogen” value [3] is reported as 30 °C.

For `CNC(=O)N=NC(C)(C)C` [XIV, tert.-butylazo-N-methylformamide], the “hardness of cured resin” value [1] was “very hard”, the peak exotherm [1, 7] was 428 ° F and the “time to peak exotherm” value [1, 7] was 17.1 min.

In the case of `CCCNC(C)(CC(C)C)N=NC(C)(C)C` (stereo not shown) [Example LX, 2-t-Butylazo-2-(propylamino)-4-methylpentane], the “gas/nitrogen evolution or decomposition” value [3] is reported as “slowly evolves gas at room temperature”.

For `CC(C)(C)N=NC(C)(C#N)C(C)(C)C` (stereo not shown) [Example IX, 2-tert.-butylazo-2-cyano-3,3-dimethylbutane], the “hardness of cured resin” value [1] was “very hard”, the peak exotherm [1, 9] was 388 ° F and the “time to peak exotherm” value [1, 9] was 10.4 min. For the same molecule, the peak exotherm [1, 10] was 430 ° F, the “time to peak exotherm” value [1, 10] was 4.9 min and the “temperature at which it begins” value [3] was 95 °C.

With `CC(C)CC(C)(N=NC(C)(C)C)OC(C)(C)C` (stereo not shown) [LIV, 2-t-Butylazo-2-t-butoxy-4-methylpentane] the “Barcol Hardness” value ([1]; bath 115° C.) was 20, the “Minutes to Peak Exotherm” value ([1]; bath 115° C.) was 2.8 min and the “peak exotherm” value ([1]; bath 115° C.) was 358 ° F.

For `CC(C)CC(C#N)(CC(C)C)N=NC(C)(C)C` [Example VII, 4-tert.-butylazo-4-cyano-2,6-dimethylheptane], the “hardness of cured resin” value [1] was “very hard”, the peak exotherm [1, 8] was 371 ° F and the “time to peak exotherm” value [1, 8] was 2.8 min. For the same molecule, the “temperature at which it begins” value [3] was 70 °C.

For `CC(C)(C)N=NC(N)=O` [Example XIII, tert.-butylazoformamide], the “t 1/2” value ([5]; 110° C) was 5.73 h, the “t 1/2” value ([5]; 120° C) was 3.00 h and the “t 1/2” value ([5]; 130° C) was 0.87 h. The “t 1/2” value ([5]; 150° C) was 0.14 h, the “hardness of cured resin” value [1] was “very hard” and the peak exotherm [1, 11] was 407 ° F. The “time to peak exotherm” value [1, 11] was 7.1 min, the peak exotherm [1, 6] was 430 ° F and the “time to peak exotherm” value [1, 6] was 5.9 min. For the same molecule, the peak exotherm [1, 7] was 438 ° F and the “time to peak exotherm” value [1, 7] was 4.5 min.

In the case of `CC(C)CC(C)(N=NC(C)(C)C)NNC(C)(C)C` (stereo not shown) [LXIX, 2-t-Butylazo-2-t-butylhydrazo-4-methylpentane], the “Barcol Hardness” value ([1]; bath 82° C.) is reported as 40, the “Minutes to Peak Exotherm” value ([1]; bath 82° C.) is reported as 1.4 min and the “peak exotherm” value ([1]; bath 82° C.) is reported as 275 ° F. The “gas/nitrogen evolution or decomposition” value [3] was “evolves nitrogen at room temperature”.

With `CC(C)OC(=O)N=NC(C)(C)c1ccccc1` [Example XVIII B, Isopropyl tert.-cumylazocarboxylate] the “temperature at which it evolves nitrogen” value [3] was 80 °C.

With `CC(C)(C#N)N=NC(C)(C)c1ccccc1` [Example XI, Alpha-(tert.-cumylazo)isobutyronitrile] the “hardness of cured resin” value [1] was “very hard”, the peak exotherm [1, 8] was 378 ° F and the “time to peak exotherm” value [1, 8] was 1.3 min. The “temperature at which it begins” value [3] was 55 °C.

With `CC(C)CC(C)(N=NC(C)(C)C)SC#N` (stereo not shown) [LI, 2-t-Butylazo-2-thiocyanato-4-methylpentane] the “Barcol Hardness” value ([1]; bath 115° C.) was 45, the “Minutes to Peak Exotherm” value ([1]; bath 115° C.) was 3.4 min and the “peak exotherm” value ([1]; bath 115° C.) was 438 ° F.

In the case of `CC(C)CC(C)(N=NC(C)(C)C)OOC(C)(CC(C)C)N=NC(C)(C)C` (stereo not shown) [LVIII, Di[1-(t-butylazo)-1,3-dimethylbutyl] Peroxide], the “gas/nitrogen evolution or decomposition” value [3] is reported as “began to gas rapidly upon reaching room temperature”.

With `CC(C)(C)N=NC(=O)NCC(=O)O` [XVII, tert.-butylazo-N-carboxymethylformamide] the “oxidizing of iodide ion” value [2] was “oxidized iodide ion to free iodine” and the “temperature at which it begins” value [3] was 60 °C.
